Where two headings read alike, the source gives them in different places.
Assay: Equilibrium solubility by the shake-flask method with HPLC-UV analysis
Assay type: physicochemical
Settings: for Increase in solubility in SIF compared to PZQ alone: 24 h, relative to pure PZQ; for [PZQ] in SCF attained in 24 hours / [PZQ] in SGF attained in 24 hours / [PZQ] in SIF attained in 24 hours / [PZQ] in H2O attained in 24 hours / solubility thermodynamic at 24 h: shake-flask; for [PZQ] in SCF attained in 24 hours / [PZQ] in SGF attained in 24 hours / [PZQ] in SIF attained in 24 hours / [PZQ] in H2O attained in 24 hours: n = 3; for solubility thermodynamic at 24 h: thermodynamic from solid
Procedure: The stock solution of PZQ (2 mg/mL) was prepared by dissolving the pure compound in MeCN. Corresponding aliquots were diluted with the same solvent for the preparation of working PZQ solutions. Samples of 10 μL were injected into the chromatographic system. […] Ultrapure water was used as the reference dissolution medium. The solubility of the obtained PZQ cocrystals was determined by the shake-flask method. Briefly, excess PZQ and PZQ cocrystals (the corresponding amount of 6 mg of PZQ) were added to 2 mL vials containing 2 mL of the dissolution medium. The slurry samples were placed in an orbital shaker to achieve uniform mixing at 37 °C for 24 h. At different time intervals (10, 20, 30, 40, 50, 60, and 90 min), an aliquot of 200 μL of each sample was collected after centrifugation, filtered, and analyzed concerning the PZQ content by HPLC-UV analysis.
The solubilities of each cocrystal and PZQ were tested in ultrapure water and the three dissolution media, simulating the biorelevant fluids present along the entire gastrointestinal tract, namely, SGF (simulated gastric fluid), SIF (simulated intestinal fluid), and SCF (simulated colonic fluid).

[1] = simulated colonic fluid pH 7.8, 37 °C
[2] = simulated gastric fluid pH 1.5, 37 °C
[3] = simulated intestinal fluid pH 7.4, 37 °C

Compound	Increase in solubility in SIF compared to PZQ alone [fold]	[PZQ] in SCF attained in 24 hours [1] [µg/mL]	[PZQ] in SGF attained in 24 hours [2] [µg/mL]	[PZQ] in SIF attained in 24 hours [3] [µg/mL]	[PZQ] in H2O attained in 24 hours (ultrapure water, 37 °C) [µg/mL]	solubility thermodynamic at 24 h (simulated colonic fluid (SCF), fassgf or other biorelevant, simulated colonic fluid pH 7.8, 37 °C, n = 3, read-out: [PZQ] in SCF attained in 24 hours) [µg/mL]	solubility thermodynamic at 24 h (simulated gastric fluid (SGF), simulated gastric fluid pH 1.5, 37 °C, n = 3, read-out: [PZQ] in SGF attained in 24 hours) [µg/mL]	solubility thermodynamic at 24 h (simulated intestinal fluid (SIF), fassgf or other biorelevant, simulated intestinal fluid pH 7.4, 37 °C, n = 3, read-out: [PZQ] in SIF attained in 24 hours) [µg/mL]	solubility thermodynamic at 24 h (ultrapure water, 37 °C, n = 3, read-out: [PZQ] in H2O attained in 24 hours) [µg/mL]
PZQ – 5-HYDROXYISOPHTHALIC ACID (5HIP) – MeCN [Co-Crystal 1]	1.87	122.86	85.70	361.00	95.51	–	–	–	–
O=C(C1CCCCC1)N1CC(=O)N2CCc3ccccc3C2C1.O=C(O)c1ccc(O)cc1 (stereo not drawn) [Co-Crystal 5, PZQ – 4-HYDROXYBENZOIC ACID (4HBA)]	–	247.22	203.21	217.86	225.06	–	–	–	–
O=C(C1CCCCC1)N1CC(=O)N2CCc3ccccc3C2C1.O=C(O)c1cccc(O)c1 (stereo not drawn) [Co-Crystal 7, PZQ – 3-HYDROXYBENZOIC ACID (3HBA) (1:1)]	1.2	251.67	214.21	232.31	252.60	–	–	–	–
O.O=C(C1CCCCC1)N1CC(=O)N2CCc3ccccc3C2C1.O=C(O)c1ccccc1O (stereo not drawn) [Co-Crystal 6, PZQ – SALICYLIC ACID (SAL) – H2O]	–	258.43	202.80	246.81	220.38	–	–	–	–
PZQ – TRIMESIC ACID (TRI) – H2O [Co-Crystal 4]	1.26	193.95	44.98	242.32	56.09	–	–	–	–
O=C(C1CCCCC1)N1CC(=O)N2CCc3ccccc3C2C1.O=C(C1CCCCC1)N1CC(=O)N2CCc3ccccc3C2C1.O=C(O)c1cccc(O)c1 (stereo not drawn) [Co-Crystal 9, PZQ – 3-HYDROXYBENZOIC ACID (3HBA) (2:1)]	–	257.95	231.45	226.47	248.12	–	–	–	–
O=C(C1CCCCC1)N1CC(=O)N2CCc3ccccc3C2C1.O=C(O)C(=O)O (stereo not drawn) [Co-Crystal 8, PZQ – OXALIC ACID (OXA)]	–	252.98	238.78	229.26	250.12	–	–	–	–
PZQ – 4-AMINOSALICYLIC ACID (4ASA) – MeCN [Co-Crystal 3]	–	294.31	323.31	264.29	278.89	–	–	–	–
O=C(C1CCCCC1)N1CC(=O)N2CCc3ccccc3C2C1 (stereo not drawn) [Co-Crystal 12, praziquantel]	–	–	–	–	–	220	200	193	211

— article PMC11157481, “Mechanochemical Synthesis of New Praziquantel Cocrystals: Solid-State Characterization and Solubility” (Crystal Growth & Design, 2024)
